# Laboratory results: patent EP0598753B1, “MANGANESE COMPLEXES OF NITROGEN-CONTAINING MACROCYCLIC LIGANDS EFFECTIVE AS CATALYSTS FOR DISMUTATING SUPEROXIDE” (MONSANTO COMPANY, priority 1991, dated 1993)
# “Also recorded” adds a separate entry of the source.
# Key:
# [1] = system: human aortic endothelial cells (HAE cells)
# Text: Human peripheral blood neutrophils were isolated from fresh venous blood of healthy volunteers. EDTA anticoagulated blood was separated using a single step density centrifugation (Polymorphprep; Nycomed Pharma, Oslo, Norway) followed by several washes in Hank's balanced salt solution supplemented with 0.5% BSA (Bovine Serum Albumin) (HBSSB) and the hypertonic lysis of erythrocytes. Neutrophils were counted via Coulter electronic particle counter and resuspended in HBSSB supplemented with 25% Endothelial Basal Medium (EBM), (Clonetics Corporation, San Diego, CA) at a concentration of 5 x 10^6 polymorphonuclear leukocytes (PMN)/ml.
# The cytotoxic effects of stimulated neutrophils on endothelial cells were determined using a ^51Cr-release assay as previously described (Moldow, C.F., and Jacob, H.S. (1984) Methods Enzymol. 105, 378-385). Confluent monolayers of human aortic endothelial cells (HAE cells; Clonetics) grown in 96-well culture plates were prelabeled with 1 µCi/well ^51Cr (Na2 ^51Cr2O4, New England Nuclear, Boston, MA). The cells were incubated for 18 h at 37°C, then cytokine-activated with 10 Units/well human recombinant tumor necrosis factor-a (hrTNF-α; Monsanto Company, St. Louis, MO) for 4 h at 37°C. The cells were washed twice to remove unincorporated radioactivity with Hank's balanced salt solution supplemented with 0.5% BSA. To assess inhibition of PMN-mediated cytotoxicity, manganese(II) complexes at various doses (0-300 µM) were added to five replicate wells/dose of HAE cells immediately prior to the addition of PMN. Suspensions of PMN in HBSSB supplemented with 25% Endothelial Basal Medium were added to the wells at a neutrophil to endothelial cell ratio of 50:1. The PMN were allowed to adhere for 15 minutes at 37°C, primed with 125 Units/well hrTNF-α (Berkow, R.L., Wang, D., Larrick, J.W., Dodson, R.W., and Howard, T.H. (1987) J. Immunol. 139, 3783-3791; Varani, J.; Bendelow, M. J. Sealey, D. E.; Kunkel, S. L.; Gannon, D. E.; Ryan, U.S.; and Ward, P.A. (1987) Lab. Invest., 59, 292-295) for 10 minutes, and stimulated with human recombinant complement component C5a (Sigma Chemical, St. Louis, MO). […] After an additional incubation of 4 hours at 37°C, 200 µl of the 250 µl reaction volume (soluble fraction) was removed to a tube for counting. The cells were washed twice with 200 µl HBSSB (nonadherent fraction) and the washes pooled with the soluble fraction. The adherent fraction was collected by lysing the HAE cells with 200 µl 1N NaOH for 30 minutes and removing to separate tubes. Both fractions were analyzed by gamma scintillation spectrometry. The percentage cytotoxicity was calculated by the following formula: % Cytotoxicity =(cpm (soluble + nonadherent fractions))/(cpm (soluble + nonadherent + adherent fractions))x 100 [formula] Specific cytotoxicity reflects the difference between ^51Cr-release induced by stimulated PMN and unstimulated PMN. The IC50 values for the manganese(II) complexes for protection against neutrophil-mediated cytotoxicity were determined from a computer-driven logistic regression equation from a plot of % specific cytotoxicity versus the concentration of the manganese(II) complex.
# [2] = system: colonic myeloperoxidase activity; test: Mouse acetic acid-induced colitis model (colonic myeloperoxidase); format: in vivo; details: 30 mg/kg dose, intracolonic, 30 minutes before acetic acid, tissue after 24 hours
# Experimental: Mouse colitis model. […] Mice were lightly anesthetized. A solution of 3% (v/v) aqueous acetic acid was instilled intracolonically via a flexible polyethylene tube. After 24 hours, the animals were killed and colonic tissue samples were obtained. Tissue samples were assessed biochemically for the neutrophil marker enzyme, myeloperoxidase (MPO). The colonic tissue samples were minced, homogenized in detergent, and sonicated. After centrifugation, enzyme activities were assayed spectrophotometrically by determining the decomposition of peroxide using o-dianisidine as the hydrogen donor. Data was obtained as the absorbance (460 nm) at 20 minutes. Test agents were given intracolonically at a dose of 30 mg/kg body weight 30 minutes before acetic acid instillation as a sonicated suspension in 0.5% aqueous methyl cellulose. Vehicle was given to appropriate acetic acid control animals. Normal tissue was obtained from control animals which received only vehicle. Colonic myeloperoxidase activities were determined as units/g wet weight of tissue. Reduction of colonic myeloperoxidase activity by test agents in acetic acid-treated mice is expressed as % inhibition (Table 2). Colonic myeloperoxidase activity correlated with the degree of tissue inflammation as assessed by visual and histological analysis.
# [3] = Stopped-flow kinetic analysis of catalytic dismutation of superoxide; format: biochemical; details: for kCAT: catalytic rate constant for dismutation of superoxide, pH 8.1 and 21°C; for SOD activity (catalysis of the dismutation of superoxide), in words: stopped-flow kinetic analysis
# Text: Stopped-flow kinetic analysis is an accurate and direct method for quantitatively monitoring the decay rates of superoxide in water.
# For the attainment of consistent and accurate measurements all reagents were biologically clean and metal-free. To achieve this, all buffers (Calbiochem) were biological grade, metal-free buffers and were handled with utensils which had been washed first with 0.1 N HCl, followed by purified water, followed by a rinse in a 10^-4 M EDTA bath at pH 8, followed by a rinse with purified water and dried at 65°C for several hours. Dry DMSO solutions of potassium superoxide (Aldrich) were prepared under a dry, inert atmosphere of argon in a Vacuum Atmospheres dry glovebox using dried glassware. The DMSO solutions were prepared immediately before every stopped-flow experiment. A mortar and pestle were used to grind the yellow solid potassium superoxide (~100 mg). The powder was then ground with a few drops of DMSO and the slurry transferred to a flask containing an additional 25 ml of DMSO. The resultant slurry was stirred for 1/2 h and then filtered. […] These solutions were transferred to a glovebag under nitrogen in sealed vials prior to loading the syringe under nitrogen. It should be noted that the DMSO/superoxide solutions are extremely sensitive to water, heat, air, and extraneous metals. A fresh, pure solution has a very slight yellowish tint.
# Water for buffer solutions was delivered from an in-house deionized water system to a Barnstead Nanopure Ultrapure Series 550 water system and then double distilled, first from alkaline potassium permanganate and then from a dilute EDTA solution. For example, a solution containing 1.0 g of potassium permanganate, 2 liters of water and additional sodium hydroxide necessary to bring the pH to 9.0 were added to a […] fitted with a solvent distillation head. This distillation will oxidize any trace of organic compounds in the water. The final distillation was carried out under nitrogen in a 2.5-liter flask containing 1500 ml of water from the first still and 1.0 x 10^-6M EDTA. This step will remove remaining trace metals from the ultrapure water. To prevent EDTA mist from volatilizing over the reflux arm to the still head, the 40-cm vertical arm was packed with glass beads and wrapped with insulation. This system produces deoxygenated water that can be measured to have a conductivity of less than 2.0 nanomhos/cm^2.
# The stopped-flow spectrometer system was designed and manufactured by Kinetic Instruments Inc. (Ann Arbor, MI) and was interfaced to a MAC IICX personal computer. The software for the stopped-flow analysis was provided by Kinetics Instrument Inc. and was written in QuickBasic with MacAdios drivers. Typical injector volumes (0.10 ml of buffer and 0.006 ml of DMSO) were calibrated so that a large excess of water over the DMSO solution were mixed together. […] Aqueous solutions to be mixed with the DMSO solution of superoxide were prepared using 80 mM concentrations of the Hepes buffer, pH 8.1 (free acid + Na form). One of the reservoir syringes was filled with 5 ml of the DMSO solution while the other was filled with 5 ml of the aqueous buffer solution. The entire injection block, mixer, and spectrometer cell were immersed in a thermostatted circulating water bath with a temperature of 21.0 ± 0.5°C.
# Prior to initiating data collection for a superoxide decay, a baseline average was obtained by injecting several shots of the buffer and DMSO solutions into the mixing chamber. These shots were averaged and stored as the baseline.
Compound,kCAT ([3]; given as ND),"SOD activity (catalysis of the dismutation of superoxide), in words [3]",other results
"C[C@@H]1CNCCNCCNCCNCCN1.[Cl-].[Cl-].[Mn+2] [Example 4, [Manganese(II)dichloro((R)-2-Methyl-1,4,7,10,13-pentaazacyclopentadecane)]]",–,–,"protection against human neutrophil-mediated cytotoxicity, in words [1]: protective against human neutrophil-mediated cytotoxicity"
"[Cl-].[Cl-].[Mn+2].c1ccc(CC2CNCCNCCNCCNCCN2)cc1 (centres unmarked) [Example 6, [Manganese(II)dichloro(2-Phenylmethyl-1,4,7,10,13-pentaazacyclopentadecane)]]",–,–,% Inhibition of Colonic Myeloperoxidase Activity [2]: 48%
"Manganese(II)(2,12-Dimethyl-3,7,11,17-tetraazabicyclo[11.3.1]heptadeca-1(17),2,11,13,15 -pentaenel] Chloride [Example 23]",ND (Manganese(II) complex has no detectable superoxide dismutase activity. (kcat<10^6M^-1sec^-1)),–,–
MnCl2,ND (Manganese(II) complex has no detectable superoxide dismutase activity. (kcat<10^6M^-1sec^-1)),failed to perturb the second order spontaneous decay of superoxide; also recorded: has no SOD activity,–
"[Manganese(II)1,4,7,10,13-Pentamethyl-1,4,7,10,13-pentaazacyclopentadecane)] Chloride [Example 19]",ND (Manganese(II) complex has no detectable superoxide dismutase activity. (kcat<10^6M^-1sec^-1)),ineffective at dismutating superoxide,–
"[Manganese(II)1,4,8,12-tetramethyl-1,4,8,12-tetraazacyclopentadecane)] Chloride [Example 18]",ND (Manganese(II) complex has no detectable superoxide dismutase activity. (kcat<10^6M^-1sec^-1)),do not have SOD activity,–
"[Manganese(II)1,5,9,13-Tetraazacyclohexadecane)] Chloride [Example 10]",ND (Manganese(II) complex has no detectable superoxide dismutase activity. (kcat<10^6M^-1sec^-1)),are not catalysts for the dismutation of superoxide,–
"[Manganese(II) (1,4,8,11-Tetraazacyclotetradecane)] Chloride [Example 20]",ND (Manganese(II) complex has no detectable superoxide dismutase activity. (kcat<10^6M^-1sec^-1)),are not catalysts for the dismutation of superoxide,–
"[Manganese(II)(1,4,7,10,14-Pentaazacycloheptadecane)] Chloride [Example 12]",ND (Manganese(II) complex has no detectable superoxide dismutase activity. (kcat<10^6M^-1sec^-1)),ineffective at catalyzing the dismutation of superoxide,–
"[Manganese(II)(1,4,8,11-Tetramethyl-1,4,8,11-tetraazacyclotetradecane)]Chloride [Example 25]",ND (Manganese(II) complex has no detectable superoxide dismutase activity. (kcat<10^6M^-1sec^-1)),are not catalysts for the dismutation of superoxide,–
"[Manganese(II)(1,4,8,12-Tetraazacyclopentadecane)] Chloride [Example 21]",ND (Manganese(II) complex has no detectable superoxide dismutase activity. (kcat<10^6M^-1sec^-1)),do not have SOD activity,–
"[Manganese(II)(1-Methyl-1,4,7,10,13-pentaazacyclopentadecane)]Chloride [Example 15]",ND (Manganese(II) complex has no detectable superoxide dismutase activity. (kcat<10^6M^-1sec^-1)),ineffective at dismutating superoxide,–
"[Manganese(II)(1-Methyl-1,4,7,11,14-pentaazacyclohexadecane)] Chloride [Example 16]",ND (Manganese(II) complex has no detectable superoxide dismutase activity. (kcat<10^6M^-1sec^-1)),ineffective at catalyzing the dismutation of superoxide,–
"[Manganese(II)(2,7,12-Trimethyl-3,7,11,17-tetraazabicyclo[11.3.1]heptadeca-1(17),2, 11,13,15-pentaene)] Chloride [Example 24]",ND (Manganese(II) complex has no detectable superoxide dismutase activity. (kcat<10^6M^-1sec^-1)),–,–
"[Manganese(II)(2,13-Dimethyl-3,6,9,12,18-pentaazabicyclo[12.3.1]octadeca-1(18)2,12,14,16 -pentaene)]Chloride [Example 26]",ND (Manganese(II) complex has no detectable superoxide dismutase activity. (kcat<10^6M^-1sec^-1)),–,–
"[Manganese(II)(5,7,7,12,14,14-Hexamethyl-1,4,8,11-tetraazacyclotetradeca-4,11-diene)] Chloride [Example 22]",ND (Manganese(II) complex has no detectable superoxide dismutase activity. (kcat<10^6M^-1sec^-1)),–,–
"[Manganese(II)[1,4,7,10,13,16,19-Heptaazaacycloheneicosane)]Chloride [Example 14]",ND (Manganese(II) complex has no detectable superoxide dismutase activity. (kcat<10^6M^-1sec^-1)),are not catalysts for the dismutation of superoxide,–
"[Manganese(II)[1,4,7,10,13,16-hexaazacyclooctadecane)] Chloride [Example 13]",ND (Manganese(II) complex has no detectable superoxide dismutase activity. (kcat<10^6M^-1sec^-1)),are not catalysts for the dismutation of superoxide,–
"[Manganese(II)[1-oxa-4,7,10,13-Tetrazacyclopentadecane)] Chloride [Example 17]",ND (Manganese(II) complex has no detectable superoxide dismutase activity. (kcat<10^6M^-1sec^-1)),do not have SOD activity,–
"[Manganese(II)dichloro(2,3-Benzo-1,4,7,10,13-pentaazacyclopentadecane)] [Example 37]",–,–,kCAT [3]: 4.6e+06 M⁻¹ s⁻¹
"[Manganese(II)dichloro(3,6,9,12,18-Pentaazabicyclo(12.3.1)octadecane)] [Example 38]",–,–,kCAT [3]: 5.28e+06 M⁻¹ s⁻¹
"[Manganese(II)dichloro(trans-2,3-Cyclohexano-1,4,7,10,13-pentaazacyclopentadecane)] [Example 35]",–,–,kCAT [3]: 3.44e+07 M⁻¹ s⁻¹
"[Manganese(II)nitrate(1,4,7,10,13-pentaazacyclopentadecane)] Nitrate [Example 9]",–,–,kCAT [3]: 2.3e+07 M⁻¹ s⁻¹
"[Manganese(III)(1,4,7,11,14-Pentaazacycloheptadecane)] Chloride [Example 11]",ND (Manganese(II) complex has no detectable superoxide dismutase activity. (kcat<10^6M^-1sec^-1)),ineffective at catalyzing the dismutation of superoxide,–
"{Manganese(II)dichloro[2-(1-Naphthyl)-1,4,7,10,13-pentaazacyclopentadecane]} [Example 32]",–,–,kCAT [3]: 6.98e+06 M⁻¹ s⁻¹
"{Manganese(II)dichloro[(2S,8R)-Dimethyl-1,4,7,10,13-penta-azacyclopentadecane]} [Example 34]",–,–,kCAT [3]: 7.08e+06 M⁻¹ s⁻¹
"{Manganese(II)dichloro[(2S, 5R)-Dimethyl-1,4,7,10,13-pentaazacyclopentadecane]} [Example 33]",–,–,kCAT [3]: 2.9e+07 M⁻¹ s⁻¹
